In patent US8227504B2, “Substituted N-phenyl-pyrrolidinylmethylpyrrolidine amides and therapeutic use thereof” (Sanofi, priority 2007, dated 2012):

target: T1, rhesus (Macacca Mulatta) H3 receptor (Macaca mulatta, UniProt Q865E1); assay: Rhesus H3 [3H]-Methylhistamine radioligand binding assay (SPA); set-up: species or system rhesus monkey (Macacca Mulatta); settings: [3H]-Methylhistamine 2 nM, rhesus H3 membranes, Cheng-Prusoff; read-out: Affinity: ki in Rhesus H3 membrane binding ki
T1 construct: pcDNA5/FRT/TO (Invitrogen) containing the rhesus monkey (Macacca Mulatta) 445 amino acid H3 receptor
Procedure: Rhesus H3 membranes were prepared from the Flp-In T-REx 293 Cell Line (Invitrogen) stably transfected with pcDNA5/FRT/TO (Invitrogen) containing the rhesus monkey (Macacca Mulatta) 445 amino acid H3 receptor. (Genbank #AY231164). Stably transfected cultures were amplified in tissue culture flasks by standard tissue culture methods and induced to express rhesus H3 by exposure to 500 ng/ml tetracycline (Cellgro) for 24 hours. After induction, cells were dissociated from flasks utilizing Cell Stripper (Cellgro). Cells were centrifuged (1K×g, 5 min) and pellet frozen in an ethanol-dry ice bath to disrupt cell membranes. Frozen cell pellet was re-suspended in 5 mM HEPES (pH 7.4, Invitrogen) at 10 ml/1000 cm2 of harvested cells. The cell suspension was drawn through an 18 gauge needle (2-3×) followed by a 23 gauge needle (2-3×) to further disrupt cell membranes. The cell suspension was centrifuged (40K×g, 30 min). Cell membrane pellet was re-suspended in 5 mM HEPES (pH 7.4, Invitrogen) at a final protein concentration of 10 mg/ml. Rhesus H3 membranes were stored under liquid nitrogen prior to use in [3H]-Methylhistamine and GTPγS radioligand binding assays.
Rhesus H3 radioligand binding assay was performed using rhesus H3 receptor membranes (prepared as described above), [3H]-Methylhistamine (Perkin Elmer) and WGA SPA beads (wheat germ agglutinin scintillation proximity assay) beads (Amersham). The assay was performed in 96-well Opti-Plates (Packard). Each reaction contained 50 μl rhesus H3 membranes (20-30 μg total protein), 50 μl WGA SPA beads (0.1 μg) and 50 μl of 83Ci/mmol [^3H]-Methylhistamine (final concentration 2 nM) and 50 μl of tested compound. The compounds of this invention and/or vehicle were diluted with binding buffer from 10 mM DMSO stocks. Assay plates were sealed with TopSeal (Perkin Elmer) and mixed on shaker (25° C., 1 hour). Assay plates were read on TopCount scintillation counter (Packard). Results were analyzed by Hill transformation and Ki values were determined by Cheng-Prusoff equation.

T1 sequence (Q865E1 1-445): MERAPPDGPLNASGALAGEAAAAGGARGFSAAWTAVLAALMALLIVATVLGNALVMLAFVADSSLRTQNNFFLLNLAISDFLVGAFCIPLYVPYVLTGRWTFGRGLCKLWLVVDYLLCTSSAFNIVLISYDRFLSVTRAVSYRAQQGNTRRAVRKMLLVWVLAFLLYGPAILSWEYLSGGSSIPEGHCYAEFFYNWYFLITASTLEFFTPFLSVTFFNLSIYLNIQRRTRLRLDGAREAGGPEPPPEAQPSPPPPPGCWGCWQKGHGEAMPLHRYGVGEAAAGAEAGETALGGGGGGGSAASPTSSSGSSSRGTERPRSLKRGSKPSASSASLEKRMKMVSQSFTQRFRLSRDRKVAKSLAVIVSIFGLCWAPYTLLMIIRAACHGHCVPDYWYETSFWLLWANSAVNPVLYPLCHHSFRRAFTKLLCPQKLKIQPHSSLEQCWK

| Ki [nM] | Structure (SMILES) |
| --- | --- |
| 15.7 | Cc1nc2cc(C(=O)Nc3ccc(N4CCC(CN5CCCC5C)C4)cc3C)ccc2[nH]1 (stereo not shown) [Example 1, 2-M ethyl-1H-benzoimidazole-5-carboxylic acid {2-methyl-4-[3-(2-methyl-pyrrolidin-1-ylmethyl)-pyrrolidin-1-yl]-phenyl}-amide] |
| 51.2 | Cc1cc(N2CCC(CN3CCCC3C)C2)ccc1NC(=O)c1cnc(NCCO)c(Cl)c1 (stereo not shown) [Example 2, 5-Chloro-6-(2-hydroxy-ethylamino)-N-{2-methyl-4-[3-(2-methyl-pyrrolidin-1-ylmethyl)-pyrrolidin-1-yl]-phenyl}-nicotinamide] |
| 94.7 | Cc1cc(N2CCC(CN3CCCC3C)C2)ccc1NC(=O)c1cnc2cc(Cl)ccc2c1O (stereo not shown) [Example 3, 7-Chloro-4-hydroxy-quinoline-3-carboxylic acid {2-methyl-4-[3-(2-methyl-pyrrolidin-1-ylmethyl)-pyrrolidin-1-yl]-phenyl}-amide] |
| 39.3 | Cc1cc(N2CCC(CN3CCCC3C)C2)ccc1NC(=O)c1ccc(-n2cccc2)nc1 (stereo not shown) [Example 4, N-{2-Methyl-4-[3-(2-methyl-pyrrolidin-1-ylmethyl)-pyrrolidin-1-yl]-phenyl}-6-pyrrol-1-yl-nicotinamide] |
| 40.4 | Cc1cc(N2CCC(CN3CCCC3C)C2)ccc1NC(=O)c1ccc2c(c1)CCO2 (stereo not shown) [Example 5, 2,3-Dihydro-benzofuran-5-carboxylic acid {2-methyl-4-[3-(2-methyl-pyrrolidin-1-ylmethyl)-pyrrolidin-1-yl]-phenyl}-amide] |
| 95.4 | Cc1cc(N2CCC(CN3CCCC3C)C2)ccc1NC(=O)c1ccc(COCc2ccccc2)nc1 (stereo not shown) [Example 6, 6-Benzyloxymethyl-N-{2-methyl-4-[3-(2-methyl-pyrrolidin-1-ylmethyl)-pyrrolidin-1-yl]-phenyl}-nicotinamide] |
| 34.2 | Cc1cc(N2CCC(CN3CCCC3C)C2)ccc1NC(=O)c1ccc2c(c1)OCO2 (stereo not shown) [Example 7, Benzo[1,3]dioxole-5-carboxylic acid {2-methyl-4-[3-(2-methyl-pyrrolidin-1-ylmethyl)-pyrrolidin-1-yl]-phenyl}-amide] |
| 18 | Cc1cc(N2CCC(CN3CCCC3C)C2)ccc1NC(=O)c1ccc2cc[nH]c2c1 (stereo not shown) [Example 8, 1H-Indole-6-carboxylic acid {2-methyl-4-[3-(2-methyl-pyrrolidin-1-ylmethyl)-pyrrolidin-1-yl]-phenyl}-amide] |
| 3.1 | Cc1cc(N2CCC(CN3CCCC3C)C2)ccc1NC(=O)c1ccc(-n2ccnc2)cc1 (stereo not shown) [Example 9, 4-Imidazol-1-yl-N-{2-methyl-4-[3-(2-methyl-pyrrolidin-1-ylmethyl)-pyrrolidin-1-yl]-phenyl}-benzamide] |
| 29.8 | CC(=O)N1CCCC(c2ccc(C(=O)Nc3ccc(N4CCC(CN5CCCC5C)C4)cc3C)cc2)C1 (stereo not shown) [Example 10, 4-(1-Acetyl-piperidin-3-yl)-N-{2-methyl-4-[3-(2-methyl-pyrrolidin-1-ylmethyl)-pyrrolidin-1-yl]-phenyl}-benzamide] |
| 62.1 | Cc1cc(N2CCC(CN3CCCC3C)C2)ccc1NC(=O)c1ccc(CO)cc1 (stereo not shown) [Example 11, 4-Hydroxymethyl-N-{2-methyl-4-[3-(2-methyl-pyrrolidin-1-ylmethyl)-pyrrolidin-1-yl]-phenyl}-benzamide] |
| 61.5 | COc1ccc2[nH]c(C(=O)Nc3ccc(N4CCC(CN5CCCC5C)C4)cc3C)cc2c1 (stereo not shown) [Example 12, 5-Methoxy-1H-indole-2-carboxylic acid {2-methyl-4-[3-(2-methyl-pyrrolidin-1-ylmethyl)-pyrrolidin-1-yl]-phenyl}-amide] |
| 9.3 | Cc1cc(N2CCC(CN3CCCC3C)C2)ccc1NC(=O)c1ccc2c(c1)NC(=O)CNC2=O (stereo not shown) [Example 13, 2,5-Dioxo-2,3,4,5-tetrahydro-1H-benzo[e][1,4]diazepine-8-carboxylic acid {2-methyl-4-[3-(2-methyl-pyrrolidin-1-ylmethyl)-pyrrolidin-1-yl]-phenyl}-amide] |
| 32.3 | COCCNC(=O)c1ccc(C(=O)Nc2ccc(N3CCC(CN4CCCC4C)C3)cc2C)cn1 (stereo not shown) [Example 14, Pyridine-2,5-dicarboxylic acid 2-[(2-methoxy-ethyl)-amide]5-({2-methyl-4-[3-(2-methyl-pyrrolidin-1-ylmethyl)-pyrrolidin-1-yl]-phenyl}-amide)] |
| 66.7 | COc1ccc2cc(C(=O)Nc3ccc(N4CCC(CN5CCCC5C)C4)cc3C)oc2c1 (stereo not shown) [Example 15, 6-Methoxy-benzofuran-2-carboxylic acid {2-methyl-4-[3-(2-methyl-pyrrolidin-1-ylmethyl)-pyrrolidin-1-yl]-phenyl}-amide] |
| 67.6 | Cc1cc(N2CCC(CN3CCCC3C)C2)ccc1NC(=O)c1ccc2c(c1)C(O)C(O)C(C)(C)O2 (stereo not shown) [Example 16, 3,4-Dihydroxy-2,2-dimethyl-chroman-6-carboxylic acid {2-methyl-4-[3-(2-methyl-pyrrolidin-1-ylmethyl)-pyrrolidin-1-yl]-phenyl}-amide] |
| 19.2 | Cc1ccc2c(O)c(C(=O)Nc3ccc(N4CCC(CN5CCCC5C)C4)cc3C)cnc2n1 (stereo not shown) [Example 17, 4-Hydroxy-7-methyl-[1,8]naphthyridine-3-carboxylic acid {2-methyl-4-[3-(2-methyl-pyrrolidin-1-ylmethyl)-pyrrolidin-1-yl]-phenyl}-amide] |
| 59.4 | CC1=NN(c2ccc(C(=O)Nc3ccc(N4CCC(CN5CCCC5C)C4)cc3C)cc2)C(=O)C1 (stereo not shown) [Example 18, N-{2-Methyl-4-[3-(2-methyl-pyrrolidin-1-ylmethyl)-pyrrolidin-1-yl]-phenyl}-4-(3-methyl-5-oxo-4,5-dihydro-pyrazol-1-yl)-benzamide] |
| 26.5 | Cc1ccc2oc(C(=O)Nc3ccc(N4CCC(CN5CCCC5C)C4)cc3C)cc(=O)c2c1 (stereo not shown) [Example 19, 6-Methyl-4-oxo-4H-chromene-2-carboxylic acid {2-methyl-4-[3-(2-methyl-pyrrolidin-1-ylmethyl)-pyrrolidin-1-yl]-phenyl}-amide] |
